Values quoted from earlier work as cited in US8865699B2, “Amino triazoles as PI3K inhibitors” (Cellzome Ltd., priority 2007, dated 2014).

What was measured:
[1] = tested on: collagen II-antibody-induced arthritis; conditions: wildtype mice, oral
[2] = tested on: lymphocyte-dependent rheumatoid arthritis induced by direct collagen II injection; conditions: mouse, oral
[3] = tested on: MRL-lpr mouse model of systemic lupus erythematosus (SLE); conditions: intraperitoneal administration
[4] = tested on: animal model of myocardial infarction; conditions: dosing after myocardial reperfusion (up to 3 hours after)

O=C1NC(=O)/C(=C\c2ccc3nccnc3c2)S1 [AS-605240]
clinical and histologic signs of arthritis [1]: reduced clinical and histologic signs of collagen II-antibody-induced arthritis
joint inflammation and damage [2]: decreased joint inflammation and damage
CD4+ T-cell populations [3]: reduced CD4+ T-cell populations
glomerulonephritis [3]: reduced glomerulonephritis
life span [3]: prolonged life span

Nc1nc(N)c2nc(-c3cccc(O)c3)c(-c3cccc(O)c3)nc2n1 [TG100-115]
edema and inflammation in response to multiple mediators [4]: potently inhibits edema and inflammation
